The values below come from patent publication US6620815B1, “Oxazolidinones and uses thereof” (Synaptic Pharmaceutical Corporation, priority 1997, dated 2003).

The target of data set [1] is T1, cloned human α1D receptor (Homo sapiens, UniProt P25100).
T1 sequence (P25100 1-572): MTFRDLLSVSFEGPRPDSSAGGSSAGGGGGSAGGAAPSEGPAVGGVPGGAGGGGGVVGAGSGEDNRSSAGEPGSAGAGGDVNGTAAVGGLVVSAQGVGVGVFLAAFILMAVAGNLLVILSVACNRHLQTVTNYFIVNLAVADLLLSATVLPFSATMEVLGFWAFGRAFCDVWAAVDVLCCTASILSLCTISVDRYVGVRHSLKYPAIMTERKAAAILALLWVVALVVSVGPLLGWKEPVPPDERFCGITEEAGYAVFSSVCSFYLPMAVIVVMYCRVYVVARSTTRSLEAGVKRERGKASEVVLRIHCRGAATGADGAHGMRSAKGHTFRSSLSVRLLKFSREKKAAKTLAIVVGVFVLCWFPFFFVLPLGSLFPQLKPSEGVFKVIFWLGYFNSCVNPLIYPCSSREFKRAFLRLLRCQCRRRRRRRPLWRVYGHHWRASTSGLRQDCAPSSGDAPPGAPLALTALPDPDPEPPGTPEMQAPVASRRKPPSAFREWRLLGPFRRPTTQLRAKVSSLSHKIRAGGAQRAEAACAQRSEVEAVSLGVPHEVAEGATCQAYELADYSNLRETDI
The data set is described as follows: Radioligand binding assay, [3H] prazosin displacement, cloned human α1D receptor. The note with it: [3H] prazosin 0.5 nM, membrane preparations of transfected LM(tk-) cells; read-out: hα1D Ki. On the procedure: (§1) These cell lines were prepared by transfecting the cloned cDNA or cloned genomic DNA or constructs containing both genomic DNA and cDNA encoding the human α-adrenergic receptors as follows:
The cells were grown, in a controlled environment (37° C., 5% CO2), as monolayers in Dulbecco's modified Eagle's Medium (GIBCO, Grand Island, N.Y.) containing 25 mM glucose and supplemented with 10% bovine calf serum, 100 units/ml penicillin g, and 100 μg/ml streptomycin sulfate.
(§2) Transfected cells from culture flasks were scraped into 5 ml of 5 mM Tris-HCl, 5 mM EDTA, pH 7.5, and lysed by sonication. The cell lysates were centrifuged at 1000 rpm for 5 min at 4° C., and the supernatant was centrifuged at 30,000×g for 20 min at 4° C. The pellet was suspended in 50 mM Tris-HCl, 1 mM MgCl2, and 0.1% ascorbic acid at pH 7.5. Binding of the α1 antagonist [^3H] prazosin (0.5 nM, specific activity 76.2 Ci/mmol) to membrane preparations of LM(tk−) cells was done in a final volume of 0.25 ml and incubated at 37° C. for 20 min. Nonspecific binding was determined in the presence of 10 μM phentolamine. The reaction was stopped by filtration through GF/B filters using a cell harvester.

The target of data set [2] is T2, cloned human α1B receptor (Homo sapiens, UniProt P35368).
T2 sequence (P35368 1-520): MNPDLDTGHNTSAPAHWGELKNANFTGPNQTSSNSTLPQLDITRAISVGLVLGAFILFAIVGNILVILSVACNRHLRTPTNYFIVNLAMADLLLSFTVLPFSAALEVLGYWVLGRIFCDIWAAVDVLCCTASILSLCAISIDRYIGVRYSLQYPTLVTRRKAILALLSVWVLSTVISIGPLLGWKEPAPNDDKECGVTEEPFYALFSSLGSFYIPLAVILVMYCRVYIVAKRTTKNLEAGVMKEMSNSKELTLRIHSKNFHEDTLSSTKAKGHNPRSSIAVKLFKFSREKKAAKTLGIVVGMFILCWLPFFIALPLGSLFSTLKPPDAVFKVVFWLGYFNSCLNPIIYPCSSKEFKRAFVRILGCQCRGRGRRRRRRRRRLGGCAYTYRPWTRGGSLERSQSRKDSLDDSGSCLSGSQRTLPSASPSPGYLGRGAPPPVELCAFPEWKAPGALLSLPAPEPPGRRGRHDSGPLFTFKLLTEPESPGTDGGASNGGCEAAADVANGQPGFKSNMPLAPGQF
The data set is described as follows: Radioligand binding assay, [3H] prazosin displacement, cloned human α1B receptor. The note with it: [3H] prazosin 0.5 nM, membrane preparations of transfected LM(tk-) cells; read-out: hα1B Ki. On the procedure:
as §1
The construct involved ligating the full-length containing EcoRI brainstem cDNA fragment from λ ZapII into the expression vector. Stable cell lines were selected as described above.
as §2

Data set [3] concerns the target T3, cloned human α1A receptor (Homo sapiens, UniProt P35348).
T3 sequence (P35348 1-466): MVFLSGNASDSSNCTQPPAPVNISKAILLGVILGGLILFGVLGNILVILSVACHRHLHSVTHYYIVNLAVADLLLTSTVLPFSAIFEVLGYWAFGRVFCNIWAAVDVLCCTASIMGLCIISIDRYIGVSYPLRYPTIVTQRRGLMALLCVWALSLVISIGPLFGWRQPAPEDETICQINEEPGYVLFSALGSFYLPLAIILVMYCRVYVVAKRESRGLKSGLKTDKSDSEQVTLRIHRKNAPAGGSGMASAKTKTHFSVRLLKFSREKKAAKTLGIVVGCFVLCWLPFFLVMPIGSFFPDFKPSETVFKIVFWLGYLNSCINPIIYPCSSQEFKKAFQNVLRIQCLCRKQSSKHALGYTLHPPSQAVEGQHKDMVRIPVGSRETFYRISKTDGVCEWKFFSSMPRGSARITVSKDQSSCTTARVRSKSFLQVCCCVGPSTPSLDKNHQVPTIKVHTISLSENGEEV
The data set is described as follows: Radioligand binding assay, [3H] prazosin displacement, cloned human α1A receptor. The following applies: [3H] prazosin 0.5 nM, membrane preparations of transfected LM(tk-) cells; read-out: hα1A Ki. On the procedure:
as §1
The construct involved ligating three partial overlapping fragments: a 5′ 0.6 kb HincII genomic clone, a central 1.8 EcoRI hippocampal cDNA clone, and a 3′ 0.6 Kb PstI genomic clone. The hippocampal cDNA fragment overlaps with the 5′ and 3′ genomic clones so that the HincII and PstI sites at the 5′ and 3′ ends of the cDNA clone, respectively, were utilized for ligation. This full-length clone was cloned into the KpnI site of the expression vector, using the 5′ and 3′ KpnI sites of the fragment, derived from vector (i.e., pBluescript) and 3′-untranslated sequences, respectively. Stable cell lines were selected as described above.
as §2

Counter-ions that a name gives are not always drawn.

The molecule `CC(=O)OC1(c2ccccc2)CCN(CCCNC(=O)N2C(=O)OC(C)(C)C2c2ccc(F)c(F)c2)CC1.Cl` (stereo not drawn) gave a melting point of 116 to 118 °C.

As to `COC(=O)C1(c2ccccc2)CCN(CCNC(=O)N2C(=O)OCC2c2ccc(F)c(F)c2)CC1` (stereo not drawn) [Example 21, 4-(3,4-Difluorophenyl)-2-oxo-oxazolidine-3-carboxylic Acid{2-[4-phenylpiperidine-4-(carboxylic Acid Methyl Ester)]ethyl}amide], the values for the Ki in data set [1], in data set [2] and in data set [3] were 2460 nM, 891 nM and 21 nM, respectively.

`CC1(C)OC(=O)N(C(=O)NCC(F)CN2CCC(C#N)(c3ccccc3)CC2)C1c1ccc(F)c(F)c1.Cl` (stereo not drawn) yielded a melting point of 120 to 122 °C.

In the case of `COc1ccccc1N1CCN(CCCCCN2C(=O)OCC2c2ccc(F)c(F)c2)CC1` (stereo not drawn) [Example 2, 4-(3,4-Difluorophenyl)-3-{5-[4-(2-methoxy-phenyl)-piperazin-1-yl]-pentyl}-oxazolidin-2-one], the Ki in data set [1] is 11 nM; in data set [2], 21 nM; in data set [3] it was 0.5 nM.

On to `CC1(C)OC(=O)N(C(=O)NCC(O)CN2CCC(C#N)(c3ccccc3)CC2)C1c1ccc(F)c(F)c1.Cl` (stereo not drawn) [Example 28, N3-[3-(4-Cyano-4-phenylpiperidino)-2-hydroxypropyl]-4-(3,4-difluorophenyl)-5,5-dimethyl-2-oxo-oxazolidine-3-carboxamide Hydrochloride], for which the melting point was 135 to 137 °C. For the same molecule, the inhibition constant Ki in data set [1] is 3660 nM. The Ki in data set [2] came out at 4010 nM. Further, the Ki in data set [3] stood at 0.7 nM.

`Cl.N#CC1(c2ccccc2)CCN(CCCNC(=O)N2C(=O)OCC2(c2ccccc2)c2ccccc2)CC1`: the melting point lay in the range of 139 to 141 °C.

With `COC(=O)C1(c2ccccc2)CCN(CCNC(=O)N2C(=O)OCC2c2ccc(F)c(F)c2)CC1` (stereo not drawn) (as salt: hydrochloride) [Example 21, 4-(3,4-Difluorophenyl)-2-oxo-oxazolidine-3-carboxylic Acid{2-[4-phenylpiperidine-4-(carboxylic Acid Methyl Ester)]ethyl}amide], the melting point was 80 to 85 °C.

`O=C(NCCCN1CCC(c2ccccc2)(c2ccco2)CC1)N1C(=O)OCC1c1ccc(F)c(F)c1` (stereo not drawn) (as salt: HCl) had a melting point of 149 to 151 °C.

In the case of `COc1ccccc1N1CCN(CCCCCN2C(=O)OCC2c2ccc(F)c(F)c2)CC1` (stereo not drawn) (as salt: hydrochloride) [Example 2, 4-(3,4-Difluorophenyl)-3-{5-[4-(2-methoxy-phenyl)-piperazin-1-yl]-pentyl}-oxazolidin-2-one], the melting point fell in the range of 174 to 178 °C.

In turn, `Cl.Cl.O=C1OCC(c2ccc(F)c(F)c2)N1C(=O)N1CCCC(CN2CCC(c3ccccn3)CC2)C1` (stereo not drawn) showed a melting point of 176 to 178 °C.

In the case of `N#CC1(c2ccccc2)CCC(N2CCN(C(=O)N3C(=O)OCC3c3ccc(F)c(F)c3)CC2)CC1` (stereo not drawn) (as salt: HCl) [Example 34, 4-{4-[4-(3,4-Difluoro-phenyl)-2-oxo-oxazolidine-3-carbonyl]-piperazin-1-yl}-1-phenyl-cyclohexanecarbonitrile], the melting point was in the range of 148 to 151 °C.

The term melting point denotes the temperature, or range, at which the solid turns liquid. A word on the Ki: it is a measure of affinity in units of concentration, obtained from inhibition or displacement.
